These results are taken from US7342010B2, “2-thiaquinolizidines and process for the preparation thereof” (Board of Trustees of Michigan State University, priority 2004, dated 2008).

Test [1] deals with T1, α-glucosidase (rice) (Oryza sativa subsp. japonica, UniProt Q653V7).
T1 construct: purchased Sigma
The note with it: cited from earlier work; for pKi: literature values, read-out: Inhibition activity Ki, α-glucosidase (rice).

Test [2] concerns the target β-glucosidase (almond). To be noted: cited from earlier work.
Test [3] addresses α-glucosidase (yeast). To be noted: cited from earlier work; for pKi: literature values, read-out: Inhibition activity Ki, α-glucosidase (yeast).
In test [4] the target is T2, α-mannosidase (jack beans) (Canavalia ensiformis, UniProt C0HJB3).
T2 construct: purchased Sigma
T2 sequence (C0HJB3 1-562 limits assumed): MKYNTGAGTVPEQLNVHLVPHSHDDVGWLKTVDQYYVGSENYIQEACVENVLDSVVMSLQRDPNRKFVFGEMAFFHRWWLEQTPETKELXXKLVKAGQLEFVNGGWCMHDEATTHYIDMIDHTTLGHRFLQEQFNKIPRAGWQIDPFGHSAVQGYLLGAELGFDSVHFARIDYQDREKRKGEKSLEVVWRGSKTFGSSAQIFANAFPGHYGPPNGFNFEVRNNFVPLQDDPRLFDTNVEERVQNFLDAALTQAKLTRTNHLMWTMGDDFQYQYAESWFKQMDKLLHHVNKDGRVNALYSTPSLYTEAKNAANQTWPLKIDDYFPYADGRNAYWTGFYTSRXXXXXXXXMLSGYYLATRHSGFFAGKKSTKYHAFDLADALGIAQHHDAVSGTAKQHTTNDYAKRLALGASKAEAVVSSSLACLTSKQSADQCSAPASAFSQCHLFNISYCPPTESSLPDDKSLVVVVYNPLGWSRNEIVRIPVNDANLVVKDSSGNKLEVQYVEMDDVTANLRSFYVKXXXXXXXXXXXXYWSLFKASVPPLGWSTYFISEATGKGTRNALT
T2 sequence (C0HJB3 563-981 limits assumed): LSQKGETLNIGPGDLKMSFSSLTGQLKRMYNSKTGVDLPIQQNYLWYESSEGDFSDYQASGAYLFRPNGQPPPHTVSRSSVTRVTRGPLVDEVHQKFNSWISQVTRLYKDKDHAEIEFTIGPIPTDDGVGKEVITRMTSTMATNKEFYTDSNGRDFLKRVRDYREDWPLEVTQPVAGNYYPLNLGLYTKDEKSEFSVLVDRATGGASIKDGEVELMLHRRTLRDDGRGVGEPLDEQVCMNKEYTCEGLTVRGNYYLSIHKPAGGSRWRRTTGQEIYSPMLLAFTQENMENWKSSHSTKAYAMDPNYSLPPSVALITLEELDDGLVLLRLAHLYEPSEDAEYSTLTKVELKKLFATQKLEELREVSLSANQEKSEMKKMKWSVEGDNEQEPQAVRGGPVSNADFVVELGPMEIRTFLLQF
To be noted: cited from earlier work.

In test [5] the test system is T3, α-glucosidase (yeast).
T3 construct: other: p-nitrophenylglucoside substrate, 37° C
In words: Inhibition of yeast α-glucosidase, hydrolysis of p-nitrophenylglucoside followed spectrophotometrically. The test is classed as biochemical. As to the method:
(§1) The inhibitory activity of 3 against a series of enzyme was tested. Enzymes were assayed according to standard procedures (Halvorson, H. O., Methods Enzymol. 8, 55 (1966)) by following the hydrolysis of nitrophenyl glycosides spectrophotometrically or by evaluating the reducing sugar formed in some glucosidase assays. The enzymes used were α-glucosidase (yeast and rice), β-glucosidase (almond), α-galactosidase (green coffee beans), β-galactosidase (E. coli) and α-mannosidase (jack beans).
(§2) Inhibitory potency of 3 was determined by spectrophotometrically measuring the residual hydrolytic activities of the glycosidases against the corresponding nitrophenyl α- or β-D-glucopyranoside. The glycosidases used were α-glucosidase (yeast), α-glucosidase (rice), β-glucosidase (almond), α-galactosidase (green coffee beans), β-galactosidase (E. coli) and α-mannosidase (jack beans). All enzymes were purchased from Sigma. Each assay was performed in a phosphate or an acetate buffer at the optimal pH for each enzyme. Inhibition studies (except rice α-glucosidase) were performed by adding the inhibitor to a final concentration of 0.05 mM to 11 mM to the respective buffer solutions along with enzyme. The solutions were incubated at 37° C. before adding substrates to the solutions. The absorbance of the resulting mixture was determined at 400 nm (for p-nitrophenol).

Test [6] deals with T1, α-glucosidase (rice). In words: Inhibition of rice α-glucosidase, maltose substrate, glucose oxidase/peroxidase coupled assay. Type of test: biochemical. The protocol:
as §1
as §2, with “Inhibition studies (except rice α-glucosidase) were performed by adding the inhibitor to a final concentration of 0.05 mM to 11 mM to the respective buffer solutions along with enzyme. The solutions were incubated at 37° C. before adding substrates to the solutions.” left out
For rice α-glucosidase inhibition, maltose was used as the substrate, and the assay was based on the glucose oxidase/peroxidase enzyme procedure. […] The absorbance of the solution was determined at 500 nm for oxidized o-dianisidine. […] The absorbance of the solution was determined at 500 nm.

For test [7], the system named is β-glucosidase (almond). In words: Inhibition of almond β-glucosidase, nitrophenyl glycoside hydrolysis. Type of test: biochemical. The protocol:
as §1, §2

Test [8] addresses T4, α-galactosidase (green coffee beans) (Coffea arabica, UniProt Q42656).
T4 construct: purchased Sigma
In words: Inhibition of green coffee bean α-galactosidase, nitrophenyl glycoside hydrolysis. Type of test: biochemical. The protocol: as §1, §2

Test [9] addresses T5, β-galactosidase (E. coli) (Escherichia coli, UniProt P00722).
T5 construct: purchased Sigma
In words: Inhibition of E. coli β-galactosidase, nitrophenyl glycoside hydrolysis. Type of test: biochemical. The protocol: as §1, §2

In test [10] the target is T2, α-mannosidase (jack beans). In words: Inhibition of jack bean α-mannosidase, nitrophenyl glycoside hydrolysis. Type of test: biochemical. As to the method: as §1, §2
The target of test [11] is T4, α-galactosidase (green coffee beans). To be noted: literature values; n.i. = no inhibition observed; cited from earlier work.
Test [12] has as its system β-glucosidase. The note with it: literature, enzyme source not stated; cited from earlier work.
The mark [13] stands for this setting: literature values, n.i. = no inhibition observed.

A word on the pKi: it is the negative decadic logarithm of the Ki, by convention in mol/L. As usually defined, the pIC50 is the IC50 on a negative log10 scale, so that one unit is a factor of ten.

pIC50, pKi: −log10 of the molar value. Like-named read-outs stand apart in the source and are kept apart here. Bounds are passed on as bounds.

T5 sequence (P00722 2-1024): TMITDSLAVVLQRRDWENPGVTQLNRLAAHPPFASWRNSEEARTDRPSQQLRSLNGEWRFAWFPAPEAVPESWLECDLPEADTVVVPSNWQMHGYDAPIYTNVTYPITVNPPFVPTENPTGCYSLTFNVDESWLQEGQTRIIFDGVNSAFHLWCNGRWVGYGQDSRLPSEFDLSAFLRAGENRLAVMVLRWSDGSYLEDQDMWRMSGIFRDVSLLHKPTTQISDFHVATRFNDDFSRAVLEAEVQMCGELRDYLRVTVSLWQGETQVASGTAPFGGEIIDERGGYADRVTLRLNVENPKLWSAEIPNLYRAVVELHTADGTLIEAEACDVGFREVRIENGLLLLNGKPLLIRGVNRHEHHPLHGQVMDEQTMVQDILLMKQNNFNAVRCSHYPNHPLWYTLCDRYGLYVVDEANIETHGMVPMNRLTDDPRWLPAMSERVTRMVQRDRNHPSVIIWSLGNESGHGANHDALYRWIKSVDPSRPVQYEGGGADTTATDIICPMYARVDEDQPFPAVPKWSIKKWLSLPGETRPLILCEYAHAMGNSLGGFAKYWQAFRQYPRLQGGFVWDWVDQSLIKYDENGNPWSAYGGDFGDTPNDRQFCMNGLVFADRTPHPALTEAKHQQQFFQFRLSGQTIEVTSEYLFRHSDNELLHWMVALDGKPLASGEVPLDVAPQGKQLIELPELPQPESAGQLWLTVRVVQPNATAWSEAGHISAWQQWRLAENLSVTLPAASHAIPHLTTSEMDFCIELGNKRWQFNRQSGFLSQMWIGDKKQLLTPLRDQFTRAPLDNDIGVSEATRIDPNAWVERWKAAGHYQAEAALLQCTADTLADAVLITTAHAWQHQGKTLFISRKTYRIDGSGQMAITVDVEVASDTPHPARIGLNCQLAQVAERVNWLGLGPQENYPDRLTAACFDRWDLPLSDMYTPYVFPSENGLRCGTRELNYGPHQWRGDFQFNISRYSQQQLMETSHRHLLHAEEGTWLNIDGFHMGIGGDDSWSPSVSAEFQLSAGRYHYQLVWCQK
T1 sequence (Q653V7 34-885): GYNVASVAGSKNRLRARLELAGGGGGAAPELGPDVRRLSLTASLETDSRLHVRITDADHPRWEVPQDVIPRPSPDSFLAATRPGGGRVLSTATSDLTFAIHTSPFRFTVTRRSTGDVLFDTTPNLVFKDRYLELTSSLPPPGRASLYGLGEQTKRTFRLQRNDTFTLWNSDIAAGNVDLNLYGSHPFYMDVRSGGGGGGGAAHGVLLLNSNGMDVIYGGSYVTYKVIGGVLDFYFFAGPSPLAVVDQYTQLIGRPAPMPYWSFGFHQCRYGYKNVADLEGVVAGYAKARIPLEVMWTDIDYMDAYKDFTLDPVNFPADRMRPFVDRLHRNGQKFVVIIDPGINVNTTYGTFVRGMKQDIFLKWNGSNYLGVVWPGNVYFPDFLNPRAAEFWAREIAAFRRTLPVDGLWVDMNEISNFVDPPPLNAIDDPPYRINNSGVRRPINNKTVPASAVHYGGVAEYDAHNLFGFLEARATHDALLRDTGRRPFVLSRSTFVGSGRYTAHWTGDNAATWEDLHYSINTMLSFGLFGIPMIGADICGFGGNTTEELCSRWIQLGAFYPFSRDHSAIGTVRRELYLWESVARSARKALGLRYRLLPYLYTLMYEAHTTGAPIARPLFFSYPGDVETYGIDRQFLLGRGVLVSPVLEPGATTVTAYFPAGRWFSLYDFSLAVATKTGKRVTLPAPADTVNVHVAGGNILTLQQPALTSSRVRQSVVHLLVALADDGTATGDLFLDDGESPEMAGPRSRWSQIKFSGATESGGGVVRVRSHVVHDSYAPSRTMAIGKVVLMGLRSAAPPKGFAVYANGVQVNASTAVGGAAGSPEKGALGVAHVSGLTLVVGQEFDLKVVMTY
T4 sequence (Q42656 16-378): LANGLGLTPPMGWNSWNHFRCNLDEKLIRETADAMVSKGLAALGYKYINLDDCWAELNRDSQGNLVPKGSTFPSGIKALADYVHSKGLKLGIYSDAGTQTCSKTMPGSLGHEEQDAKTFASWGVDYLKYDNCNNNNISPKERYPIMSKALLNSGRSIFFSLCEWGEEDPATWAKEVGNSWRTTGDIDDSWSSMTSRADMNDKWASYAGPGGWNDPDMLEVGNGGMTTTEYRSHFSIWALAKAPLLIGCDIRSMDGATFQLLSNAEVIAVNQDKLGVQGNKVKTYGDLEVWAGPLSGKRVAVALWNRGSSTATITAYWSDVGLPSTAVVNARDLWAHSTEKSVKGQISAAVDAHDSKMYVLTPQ

Take `OC[C@H]1NC[C@H](O)[C@@H](O)[C@@H]1O` [compound 2, deoxynojirimycin]: the pKi in test [1] was 8.00; in [2] (setting [13]), […].
In the case of `O[C@H]1[C@H](O)[C@H](O)CN2CCC[C@H](O)[C@H]12` [compound 11], the pIC50 in [3] (literature value, read-out: Inhibition activity IC50, α-glucosidase (yeast)) is less than 2.70; in test [2] (literature value, read-out: Inhibition activity IC50, β-glucosidase (almond)), less than 2.70; in test [4] (literature value, read-out: Inhibition activity IC50, α-mannosidase (jack beans)), less than 2.70. Further, the “Inhibition of α-mannosidase, in words” value in test [4] (literature) was “extremely poor inhibition”.
Consider `O[C@H]1[C@H](O)[C@@H](O)CN2CCSC[C@H]12` [Compound 3, 7(S),8(R),9(R),10(S)-Trihydroxy-2-thiaquinolizidine], for which, in test [5] (double reciprocal plots, FIG. 6A), the “Type of inhibition, yeast α-glucosidase” value is “competitive inhibition”. For the same compound, the pKi in [5] (p-nitrophenylglucoside substrate, 37° C.) was 3.48; in test [6] (maltose substrate, sodium acetate buffer pH 4.0, 37° C.), 3.05. Also, the “Type of inhibition, rice α-glucosidase” value in [6] (FIG. 6B) is recorded as “competitive inhibition”. Further, the “Inhibitory activity towards β-glucosidase (almond), in words” value in test [7] (inhibitor 0.05 mM to 11 mM) is “No inhibitory activity”. Moreover, the “Inhibition activity Ki, β-glucosidase (almond)” value in test [7] (n.i. = no inhibition observed) was “n.i.^b”. For the same compound, the “Inhibitory activity towards α-galactosidase (green coffee beans), in words” value in [8] (inhibitor 0.05 mM to 11 mM) is “No inhibitory activity”. Also, in [8] (n.i. = no inhibition observed), the “Inhibition activity Ki, α-galactosidase (green coffee beans)” value is reported as “n.i.^”. The “Inhibitory activity towards β-galactosidase (E-coli), in words” value in test [9] (inhibitor 0.05 mM to 11 mM) is listed as “No inhibitory activity”. Also, in test [9] (n.i. = no inhibition observed), the “Inhibition activity Ki, β-galactosidase (E. Coli)” value is given as “n.i.^”. For the same compound, the “Inhibitory activity towards α-mannosidase (jack bean), in words” value in test [10] (inhibitor 0.05 mM to 11 mM) is on record as “No inhibitory activity”. In test [10] (n.i. = no inhibition observed), the “Inhibition activity Ki, α-mannosidase (jack beans)” value is listed as “n.i.^”.
Consider `O[C@H]1[C@H](O)[C@@H](O)CN2CC[C@H](O)[C@H]12` [Compound 1, castanospermine], for which the pKi in [3] is less than 2.82; in test [1], 7.82; in test [2] (setting [13]) it was 5.82. The “Activity against yeast α-glucosidase, in words” value in [3] (literature) is reported as “poor activity”. In test [1] (literature), the “Activity against rice α-glucosidase, in words” value was “strongly inhibited”. In addition, the “Activity against almond β-glucosidase, in words” value in test [2] (literature) is “inhibiting”.
Take `O[C@@H]1[C@@H](O)[C@H](O)N2CCCC[C@H]2[C@H]1O` [compound 10]: in test [2] (setting [13]), the “Inhibition activity Ki, β-glucosidase (almond)” value is on record as “n.i”. Moreover, the “Inhibition activity Ki, α-galactosidase (green coffee beans)” value in [11] is “n.i”.
Regarding `CC1(C)O[C@H]2[C@H](O1)[C@@H](O)CSC[C@@H]2O` [compound 13], the “Activity against a β-glucosidase, in words” value in test [12] is “inactive”.
On to `NC1=N[C@H](CO)[C@@H](O)[C@H](O)[C@H]1O` [compound 12], for which the pKi in test [3] was approximately 5.00; in test [2] (setting [13]), 5.10; in test [11], approximately 5.00.
